# Results as given in patent US10640495B2, “Heterocycle derivatives having TrkA inhibitory activity” (Shionogi & Co., Ltd., priority 2015, dated 2020).
# Target: human TrkA (Homo sapiens (Human), UniProt P04629)
# Assay: Human TrkA inhibition assay (Test Example 2)
# Type: biochemical
# Settings: Table 152, human TrkA inhibition; read-out: IC50_nM
# Method in brief: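 Recombinant TrkA (1 nmol/L) was preincubated 15 min at room temperature with compound in HEPES/MgCl2/DTT buffer, then reacted with FL-peptide 27 (1.5 μmol/L) and ATP (500 μmol/L) for 120 min at 37 °C. After EDTA stop, substrate phosphorylation was read by microfluidic mobility shift. IC50 came from logistic regression over 3-fold dilution series.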
# Sequence of human TrkA (P04629 440-796): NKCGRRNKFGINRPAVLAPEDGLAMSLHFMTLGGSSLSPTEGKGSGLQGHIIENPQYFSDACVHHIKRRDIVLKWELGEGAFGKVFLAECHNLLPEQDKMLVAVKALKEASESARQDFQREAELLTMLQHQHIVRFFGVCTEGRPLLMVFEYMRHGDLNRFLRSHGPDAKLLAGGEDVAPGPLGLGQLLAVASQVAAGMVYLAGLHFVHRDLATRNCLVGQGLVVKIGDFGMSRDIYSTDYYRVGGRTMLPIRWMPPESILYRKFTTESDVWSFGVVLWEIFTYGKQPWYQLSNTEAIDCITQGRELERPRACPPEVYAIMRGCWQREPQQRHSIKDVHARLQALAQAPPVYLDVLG
row,IC50 [nM],Structure (SMILES)
1,< 100,COCCC1C[C@@H](NC(=O)Nc2c(C)c(C3=CCN(C(=O)OC(C)(C)C)CC3)nn2-c2ccccc2)[C@H](c2ccccc2)O1 (some centres unmarked) [Compound I-20]
2,< 100,COCCN1C[C@@H](NC(=O)Nc2c(C)c(-c3ccc(C(=O)OC(C)(C)C)cc3)nn2-c2ccccc2)[C@H](c2ccc(F)c(F)c2)O1 (racemic) [Compound I-33]
3,< 100,COCC[C@@H]1O[C@@H](NC(=O)Nc2c(C)c(-c3cnn(C)c3)nn2-c2ccccc2)[C@H](c2ccccc2)O1 (racemic) [Compound I-5]
4,< 100,COCCC1C[C@@H](NC(=O)Nc2c(C)c(-c3cnn(C)c3)nn2-c2ccccc2)[C@H](c2ccccc2)O1 (some centres unmarked) [Compound I-16]
5,< 100,COCCN1C[C@@H](NC(=O)Nc2c(C)c(-c3cnn(C)c3)nn2-c2ccccc2)[C@H](c2ccc(F)c(F)c2)O1 (racemic) [Compound I-8]

# Same assay, conditions: Table 153, human TrkA inhibition; read-out: IC50
row,IC50 [nM],Structure (SMILES)
1,< 100,COCCN1C[C@@H](NC(=O)Nc2c(C)c(-c3cc(C)c(=O)n(C)c3)nn2-c2ccccc2)[C@H](c2cnc(F)c(F)c2)O1 (racemic) [Compound I-71]
2,< 100,COCCN1C[C@@H](NC(=O)Nc2c(C)c(-c3cc(C(N)=O)c(=O)n(C)c3)nn2-c2ccccc2)[C@H](c2ccnc(F)c2)O1 (racemic) [Compound I-105]
3,> 1000,CNC(=O)c1cc(-c2cc(NC(=O)N[C@@H]3CN(CCOC)O[C@H]3c3ccnc(F)c3)n(C)n2)cnc1OC (racemic) [Compound I-95]
4,< 100,COCCN1C[C@@H](NC(=O)Nc2c(C)c(-c3cnn(C)c3)nn2-c2ccccc2)[C@H](c2cnc(F)c(F)c2)O1 (racemic) [Compound I-52]
5,< 100,COCCN1C[C@@H](NC(=O)Nc2c(C)c(-c3cnc(C(=O)NC4CC4)c(C)c3)nn2-c2ccccc2)[C@H](c2ccnc(F)c2)O1 (racemic) [Compound I-169]
6,< 100,COCCN1C[C@@H](NC(=O)Nc2c(C)c(-c3cnc4c(c3)c(CO)nn4C)nn2-c2ccccc2)[C@H](c2cnc(F)c(F)c2)O1 [Compound I-128]
7,< 100,COCC[C@@H]1C[C@@H](NC(=O)Nc2c(C)c(C3=CCNCC3)nn2-c2ccccc2)[C@H](c2ccc(F)c(F)c2)O1 (racemic) [Compound I-55]
8,< 100,COCCN1C[C@@H](NC(=O)Nc2c(C)c(-c3cnc4c(c3)nnn4C)nn2-c2ccccc2)[C@H](c2ccc(F)c(F)c2)O1 (racemic) [Compound I-126]
9,< 100,COCCNC(=O)c1ncc(-c2nn(-c3ccccc3)c(NC(=O)N[C@@H]3CN(CCOC)O[C@H]3c3ccnc(F)c3)c2C)cc1C (racemic) [Compound I-173]
10,< 100,COCCN1C[C@@H](NC(=O)Nc2c(C)c(-c3cnc4c(c3)nnn4C)nn2-c2ccccc2)[C@H](c2cccc(F)c2)O1 (racemic) [Compound I-142]

# Same assay, conditions: Table 154, human TrkA inhibition; read-out: IC50
row,Structure (SMILES),IC50 [nM]
1,COCCN1C[C@@H](NC(=O)Nc2c(C)c(-c3ccnc(C(=O)NO)c3)nn2-c2ccccc2)[C@H](c2ccnc(F)c2)O1 (racemic) [Compound I-230],< 100
2,COCC[C@@H]1C[C@@H](NC(=O)Nc2c(C)c(-c3cnn(C)c3)nn2-c2ccccc2)[C@H](c2ccnc(F)c2)O1 [Compound I-235],< 100
3,COCCN1C[C@@H](NC(=O)Nc2c(C)c(-c3ccc(C(=O)O)nc3)nn2-c2ccccc2)[C@H](c2ccc(F)c(F)c2)O1 (racemic) [Compound I-214],< 100
4,COCCN1C[C@@H](NC(=O)Nc2c(C)c(-c3ccc(N=S(C)(C)=O)cc3)nn2-c2ccccc2)[C@H](c2ccc(F)c(F)c2)O1 [Compound I-227],< 100
5,Cc1c(-c2cnc3c(cnn3C)c2)nn(-c2ccccc2)c1NC(=O)N[C@@H]1CN(CC(C)(C)CN(C)C)O[C@H]1c1ccc(F)c(F)c1 (racemic) [Compound I-206],100 to 1000
6,CNS(=O)(=O)c1cc(-c2nn(-c3ccccc3)c(NC(=O)N[C@@H]3CN(CCOC)O[C@H]3c3ccnc(F)c3)c2C)cn(C)c1=O (racemic) [Compound I-178],< 100
7,COCCN1C[C@@H](NC(=O)Nc2c(C)c(-c3cnc(N4CC(O)C4)nc3)nn2-c2ccccc2)[C@H](c2cnc(F)c(F)c2)O1 [Compound I-210],< 100

# More lines, now with the values ahead:
row,IC50 [nM],Structure (SMILES)
1,< 100,COCC[C@@H]1C[C@@H](NC(=O)Nc2c(C)c(-c3cc(C(=O)OC)c(=O)n(C)c3)nn2-c2ccccc2)[C@H](c2ccnc(F)c2)O1 [Compound I-251]
2,< 100,CNC(=O)c1ncc(-c2nn(-c3ccccc3)c(NC(=O)N[C@@H]3CN(CCOC)O[C@H]3c3ccnc(F)c3)c2C)cc1F (racemic) [Compound I-256]
3,< 100,CNC(=O)c1ncc(-c2nn(-c3ccccc3)c(NC(=O)N[C@@H]3CN(CCOC)O[C@H]3c3ccc(F)c(F)c3)c2C)cc1F [Compound I-314]
4,< 100,COCCN1C[C@@H](NC(=O)Nc2c(C)c(-c3cnc(OC)nc3)nn2-c2ccccc2)[C@H](c2ccc(F)cc2)O1 (racemic) [Compound I-247]
5,< 100,COCCN1C[C@@H](NC(=O)Nc2c(C)c(-c3cnc(N4CCC4)nc3)nn2-c2ccccc2)[C@H](c2ccnc(F)c2)O1 (racemic) [Compound I-266]
6,< 100,COCCN1C[C@@H](NC(=O)Nc2c(C)c(-c3ccc(N4CCCC4)nc3)nn2-c2ccccc2)[C@H](c2ccnc(F)c2)O1 (racemic) [Compound I-283]
7,< 100,COCCN1C[C@@H](NC(=O)Nc2c(C)c(-c3cnc(C(=O)NC4CC4)c(F)c3)nn2-c2ccccc2)[C@H](c2ccnc(F)c2)O1 (racemic) [Compound I-257]

# Same assay, conditions: Table 155, human TrkA inhibition; read-out: IC50
row,IC50 [nM],Structure (SMILES)
1,< 100,COCCN1C[C@@H](NC(=O)Nc2c(C)c(-c3cnn(C)c3)nn2-c2ccccn2)[C@H](c2ccc(F)c(F)c2)O1 [Compound I-447]
2,< 100,COCCN1C[C@@H](NC(=O)Nc2c(C)c(C3=CC(=O)N(C)C(C)(C)C3)nn2-c2ccccc2)[C@H](c2ccnc(F)c2)O1 (racemic) [Compound I-397]
3,< 100,COCCN1C[C@@H](NC(=O)Nc2c(C)c(-c3ccn4ccnc4c3)nn2-c2ccccc2)[C@H](c2ccnc(F)c2)O1 (racemic) [Compound I-471]
4,< 100,COCCN1C[C@@H](NC(=O)Nc2c(C)c(-c3ccc(N=S(C)(C)=O)nc3)nn2-c2ccccc2)[C@H](c2ccc(F)cc2)O1 [Compound I-334]
5,< 100,COCCN1C[C@@H](NC(=O)Nc2c(C)c(-c3ccc4c(c3)N(C)C(=O)CO4)nn2-c2ccccc2)[C@H](c2ccnc(F)c2)O1 (racemic) [Compound I-365]
6,< 100,COCCN1C[C@@H](NC(=O)Nc2c(C)c(-c3cc(F)c4c(c3)NCCO4)nn2-c2ccccc2)[C@H](c2ccnc(F)c2)O1 (racemic) [Compound I-383]
7,< 100,COCCN1C[C@@H](NC(=O)Nc2c(C)c(-c3ccc(N4CCN(CC#N)CC4)nc3)nn2-c2ccccc2)[C@H](c2ccnc(F)c2)O1 (racemic) [Compound I-375]
8,< 100,COCCN1C[C@@H](NC(=O)Nc2c(C)c(-c3cnc(COC)nc3)nn2-c2ccccc2)[C@H](c2ccnc(F)c2)O1 (racemic) [Compound I-444]

# Same assay, conditions: Table 156, human TrkA inhibition; read-out: IC50
row,IC50 [nM],Structure (SMILES)
1,< 100,CCOc1nn(-c2ccccc2)c(NC(=O)N[C@@H]2CN(CCOC)O[C@H]2c2ccnc(F)c2)c1C (racemic) [Compound I-523]
2,< 100,"COCCN1C[C@@H](NC(=O)Nc2c(C)c(OCC3CN(C(C)=O)CCO3)nn2-c2ccccc2)[C@H](c2ccc(F)c(F)c2)O1 (single isomer, unassigned) [Compound I-578]"

# Same assay, conditions: Table 157, human TrkA inhibition; read-out: IC50
row,IC50 [nM],Structure (SMILES)
1,< 100,CCN1C[C@@H](NC(=O)Nc2c(C)c(OCC(=O)NCC(C)(C)O)nn2-c2ccccc2)[C@H](c2ccc(F)c(F)c2)O1 (racemic) [Compound I-652]
2,< 100,CCN1C[C@@H](NC(=O)Nc2c(C)c(-c3ccn4ccnc4c3)nn2-c2ccccc2)[C@H](c2ccc(F)c(F)c2)O1 (racemic) [Compound I-625]
3,< 100,CCN1C[C@@H](NC(=O)Nc2c(C)c(OCCC3CCNC3)nn2-c2ccccc2)[C@H](c2ccc(F)c(F)c2)O1 (some centres unmarked) [Compound I-599]
4,< 100,CCN1C[C@@H](NC(=O)Nc2c(C)c(OCCCC(=O)N3CCN(C)CC3)nn2-c2ccccc2)[C@H](c2ccc(F)c(F)c2)O1 (racemic) [Compound I-666]
5,< 100,COCCN1C[C@@H](NC(=O)Nc2c(C)c(OCC3COC(C)(C)O3)nn2-c2ccccc2)[C@H](c2ccc(F)c(F)c2)O1 (some centres unmarked) [Compound I-614]
6,< 100,COCCN1C[C@@H](NC(=O)Nc2c(C)c(-c3cnc4nc(C)oc4c3)nn2-c2ccccc2)[C@H](c2ccnc(F)c2)O1 (racemic) [Compound I-616]
7,< 100,COCCN1C[C@@H](NC(=O)Nc2c(C)c(CO)nn2-c2ccccc2)[C@H](c2ccc(F)c(F)c2)O1 [Compound I-619]
8,< 100,CCN1C[C@@H](NC(=O)Nc2c(C)c(OCCCC(N)=O)nn2-c2ccccc2)[C@H](c2ccc(F)c(F)c2)O1 (racemic) [Compound I-663]
9,< 100,CCN1C[C@@H](NC(=O)Nc2c(C)c(OCCCCO)nn2-c2ccccc2)[C@H](c2ccc(F)c(F)c2)O1 (racemic) [Compound I-670]

# Same assay, conditions: human TrkA 1 nmol/L, ATP 500 μmol/L, 120 min at 37° C.; read-out: IC50 values (TrkA phosphorylation inhibition)
row,IC50 [nM],Structure (SMILES)
1,2.4,COCCN1C[C@@H](NC(=O)Nc2c(C)c(-c3cnc(OC)nc3)nn2-c2ccccc2)[C@H](c2ccnc(F)c2)O1 [Compound I-322]
2,1.1,COCCN1C[C@@H](NC(=O)Nc2c(C)c(-c3cnc(COC)nc3)nn2-c2ccccc2)[C@H](c2ccc(F)c(F)c2)O1 [Compound I-508]
3,4.7,COCC[C@@H]1C[C@@H](NC(=O)Nc2c(C)c(-c3cnc(OC)nc3)nn2-c2ccccc2)[C@H](c2ccnc(F)c2)O1 [Compound I-273]
4,1.3,CNC(=O)c1ncc(-c2nn(-c3ccccc3)c(NC(=O)N[C@@H]3CN(CCOC)O[C@H]3c3cnc(F)c(F)c3)c2C)cc1C [Compound I-253]
5,0.87,COCCN1C[C@@H](NC(=O)Nc2c(C)c(-c3ccc(-c4nn[nH]n4)nc3)nn2-c2ccccc2)[C@H](c2ccc(F)c(F)c2)O1 (racemic) [Compound I-145]
